Assay results published in the supplement of paper PMC10307832.

Assays:
Assay in all cases: relative viability (nuclei count vs DMSO), 5 days (fraction); higher = more cells survive
[1] = compound: CNC(=O)c1cc(Oc2ccc(NC(=O)Nc3ccc(Cl)c(C(F)(F)F)c3)cc2)ccn1 [Sorafenib] + COc1cc2c(Oc3ccc(NC(=O)C4(C(=O)Nc5ccc(F)cc5)CC4)cc3F)ccnc2cc1OCCCN1CCOCC1 [Foretinib] (partner 0.25 µM)
Procedure, shortened: (§1)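 Dosing by pin tool came one day after lung cancer cell lines were seeded in 1536-well plates, using either one drug or a fixed anchor-drug dose plus five library-drug doses (not always all listed) in √10 steps. After 5 days, nuclei were counted on 4× images. Relative viability is treated-well nuclei count divided by vehicle-well nuclei count, and values are medians of duplicate plates.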

[2] = compound: CNC(=O)c1cc(Oc2ccc(NC(=O)Nc3ccc(Cl)c(C(F)(F)F)c3)cc2)ccn1 [Sorafenib] + CC(=O)c1c(C)c2cnc(Nc3ccc(N4CCNCC4)cn3)nc2n(C2CCCC2)c1=O [Palbociclib] (partner 0.5 µM)
Procedure, shortened: as §1

[3] = compound: CNC(=O)c1cc(Oc2ccc(NC(=O)Nc3ccc(Cl)c(C(F)(F)F)c3)cc2)ccn1 [Sorafenib] + O=C(c1cc(Cc2n[nH]c(=O)c3ccccc23)ccc1F)N1CCN(C(=O)C2CC2)CC1 [Olaparib] (partner 8 µM)
Procedure, shortened: as §1

[4] = compound: CNC(=O)c1cc(Oc2ccc(NC(=O)Nc3ccc(Cl)c(C(F)(F)F)c3)cc2)ccn1 [Sorafenib]
Procedure, shortened: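 Lung cancer cell lines received five library-drug doses (not always all listed) spaced by √10, pinned on vehicle-anchored 1536-well plates after an overnight stay at 37 °C. Five days later, with no medium change, nuclei were Hoechst-stained, imaged at 4× and counted with MetaXpress. Viability is treated-well nuclei relative to vehicle-well nuclei, as a median across plates. Passing plates had control CV below 25% and at least one doubling.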

[5] = compound: CNC(=O)c1cc(Oc2ccc(NC(=O)Nc3ccc(Cl)c(C(F)(F)F)c3)cc2)ccn1 [Sorafenib] + CS(=O)(=O)CCNCc1ccc(-c2ccc3ncnc(Nc4ccc(OCc5cccc(F)c5)c(Cl)c4)c3c2)o1 [Lapatinib] (partner 2 µM)
Procedure, shortened: as §1

| Cell Line | relative viability ([1]; first compound 0.08 µM) | relative viability ([1]; first compound 0.253 µM) | relative viability ([1]; first compound 2.53 µM) | relative viability ([2]; first compound 0.08 µM) | relative viability ([2]; first compound 0.253 µM) | relative viability ([2]; first compound 8 µM) | relative viability ([3]; first compound 0.08 µM) | relative viability ([3]; first compound 0.253 µM) | relative viability ([3]; first compound 2.53 µM) | relative viability ([3]; first compound 8 µM) | relative viability ([4]; 0.253 µM) | relative viability ([4]; 2.53 µM) | relative viability ([4]; 8 µM) | relative viability ([2]; first compound 2.53 µM) | relative viability ([4]; 0.08 µM) | relative viability ([5]; first compound 0.08 µM) | relative viability ([5]; first compound 0.253 µM) | relative viability ([5]; first compound 2.53 µM) | relative viability ([5]; first compound 8 µM) | relative viability ([1]; first compound 8 µM) |
| --- | --- | --- | --- | --- | --- | --- | --- | --- | --- | --- | --- | --- | --- | --- | --- | --- | --- | --- | --- | --- |
| ChaGo-K-1 | 0.961 | 0.965 | 0.9 | 0.908 | 0.894 | 0.679 | 0.41 | 0.388 | 0.441 | 0.361 | 0.915 | 1 | 0.867 | – | – | – | – | – | – | – |
| NCI-H522 | – | – | – | 0.988 | 0.92 | 0.591 | 0.68 | 0.634 | 0.775 | 0.541 | 0.877 | 0.865 | 0.648 | 1.2 | 1.04 | – | – | – | – | – |
| HCC-44 | – | – | – | 0.96 | 0.771 | 0.834 | 0.936 | 0.876 | 0.92 | 0.953 | 0.886 | 0.941 | 0.901 | 0.858 | 0.989 | 0.926 | 0.919 | 0.949 | 0.812 | – |
| NCI-H596 | 0.73 | 0.958 | 0.866 | – | – | – | 0.773 | 0.73 | 0.751 | 0.79 | 1.03 | 1.18 | 0.969 | – | 0.993 | 1.07 | 1.11 | 1.52 | 0.995 | 0.66 |
| SW 900 | 1.2 | 0.888 | 0.782 | 0.566 | 0.568 | 0.63 | 0.764 | 0.88 | 0.909 | 0.34 | 0.781 | 1.13 | 0.865 | 0.498 | 0.996 | – | – | – | – | 0.604 |
| IA-LM | – | 0.624 | 0.61 | – | – | – | 0.65 | 0.601 | 0.51 | 0.43 | 0.646 | 0.563 | 0.514 | – | – | 0.491 | 0.358 | 0.456 | 0.446 | 0.757 |
| NCI-H1703 | 0.384 | 0.283 | 0.298 | – | – | – | 0.317 | 0.27 | 0.194 | 0.192 | 0.46 | 0.271 | 0.249 | – | 0.859 | 0.716 | 0.435 | 0.28 | 0.221 | 0.278 |
| NCI-H1792 | – | – | – | 0.722 | 0.684 | 0.654 | 0.645 | 0.416 | 0.347 | 0.179 | 0.843 | 0.892 | 0.773 | 0.646 | 0.877 | 0.948 | 0.811 | 0.936 | 0.879 | – |
| NCI-H441 | 1.11 | – | 0.957 | 0.222 | 0.245 | 0.164 | 0.593 | 0.5 | 0.455 | 0.308 | 0.783 | 0.908 | 0.584 | 0.252 | 1.05 | – | – | – | – | 0.782 |
